This experiment has as its target BRD4 (Homo sapiens, UniProt O60885). The experiment is described as follows: Time resolved fluorescence resonance energy transfer (TR-FRET) binding assay, bromodomain BRD4. To be noted: one of the FRET assays described; read-out: FRET BRD4 IC50.

Bounds are passed on as bounds.

For orientation: IC50 means the concentration that gives 50% inhibition.

As for `Cc1nnn(C)c1-c1cnc2c3ccc(N4CCC(S(C)(=O)=O)CC4)nc3n([C@H](c3ccccc3)C3CCOCC3)c2c1` [Example 192, 5-(Dimethyl-1H-1,2,3-triazol-5-yl)-11-(4-methanesulfonylpiperidin-1-yl)-8-[(S)-oxan-4-yl(phenyl)methyl]-3,8,10-triazatricyclo[7.4.0.0^2,^7]trideca-1(9),2(7),3,5,10,12-hexaene], the half-maximal inhibitory concentration (IC50) was below 1 nM.
For the compound `[2H]C([2H])([2H])c1nnn(C)c1-c1cnc2c3c(OC)ncc(S(C)(=O)=O)c3n([C@H](c3ccccc3)C3CCC(F)(F)CC3)c2c1` [Example 81, 8-[(S)-(4,4-Difluorocyclohexyl)(phenyl)methyl]-10-methanesulfonyl-13-methoxy-5-[4-(^2H3)methyl-1-methyl-1H-1,2,3-triazol-5-yl]-3,8,12-triazatricyclo[7.4.0.0^2,^7]trideca-1(13),2(7),3,5,9,11-hexaene], the IC50 is below 1 nM.
Take `[2H]C([2H])([2H])c1nnn(C)c1-c1cnc2c3c(OCCCF)ncc(S(C)(=O)=O)c3n([C@H](c3ccccc3F)C3CCOCC3)c2c1` [Example 85, 8-[(S)-(2-Fluorophenyl)(oxan-4-yl)methyl]-13-(3-fluoropropoxy)-10-methanesulfonyl-5-[4-(^2H3)methyl-1-methyl-1H-1,2,3-triazol-5-yl]-3,8,12-triazatricyclo[7.4.0.0^2,^7]trideca-1(13),2(7),3,5,9,11-hexaene]: the 50% inhibitory concentration (IC50) was below 1 nM.
With `Cc1nnn(C)c1-c1cnc2c3cnc(Cl)cc3n(C(c3ncccc3F)C3CCOCC3)c2c1` (single isomer, unassigned) [Example 317] the figure was below 1500 nM; with `[2H]C([2H])([2H])c1nnn(C)c1-c1cnc2c3c(OCC4CCCO4)ncc(S(C)(=O)=O)c3n([C@H](c3ccccc3)C3CCOCC3)c2c1` (stereo partly drawn) [Example 109, 10-Methanesulfonyl-5-[4-(^2H3)methyl-1-methyl-1H-1,2,3-triazol-5-yl]-8-[(S)-oxan-4-yl(phenyl)methyl]-13-[(2R)-oxolan-2-ylmethoxy]-3,8,12-triazatricyclo[7.4.0.0^2,^7]trideca-1(13),2(7),3,5,9,11-hexaene], below 10 nM; with `[2H]C([2H])([2H])c1nnn(C)c1-c1cnc2c3c(OC)ncc(S(C)(=O)=O)c3n(C(c3ncccc3F)C3CCC(F)(F)CC3)c2c1` (stereo not drawn) [Example 73, 8-[(4,4-Difluorocyclohexyl)(3-fluoropyridin-2-yl)methyl]-10-methanesulfonyl-13-methoxy-5-[4-(^2H3)methyl-1-methyl-1H-1,2,3-triazol-5-yl]-3,8,12-triazatricyclo[7.4.0.0^2,^7]trideca-1(13),2(7),3,5,9,11-hexaene], below 1500 nM.
Regarding `COc1cc2c(c(C)n1)c1ncc(-c3c(C)nnn3C)cc1n2[C@H](c1ccccc1)C1CCOCC1` [Example 283, 5-(Dimethyl-1H-1,2,3-triazol-5-yl)-11-methoxy-13-methyl-8-[(S)-oxan-4-yl(phenyl)methyl]-3,8,12-triazatricyclo[7.4.0.0^2,^7]trideca-1(9),2(7),3,5,10,12-hexaene], the IC50 was below 1 nM.
In the case of `[2H]C([2H])([2H])c1nnn(C)c1-c1cnc2c3c(OC)nc(S(C)(=O)=O)cc3n([C@H](c3ccccc3)C3CCOCC3)c2c1` [Example 342, 11-Methanesulfonyl-13-methoxy-5-[4-(^2H3)methyl-1-methyl-1H-1,2,3-triazol-5-yl]-8-[(S)-oxan-4-yl(phenyl)methyl]-3,8,12-triazatricyclo[7.4.0.0^2,^7]trideca-1(13),2(7),3,5,9,11-hexaene] it was below 10 nM; in that of `[2H]C([2H])([2H])c1nnn(C)c1-c1cnc2c3c(OCC(F)F)ncc(S(C)(=O)=O)c3n([C@H](c3ccccc3)C3CCOCC3)c2c1` [Example 112, 13-(2,2-Difluoroethoxy)-10-methanesulfonyl-5-[4-(^2H3)methyl-1-methyl-1H-1,2,3-triazol-5-yl]-8-[(S)-oxan-4-yl(phenyl)methyl]-3,8,12-triazatricyclo[7.4.0.0^2,^7]trideca-1(13),2(7),3,5,9,11-hexaene], below 1 nM.

These data come from US9725449B2, “Tricyclic compounds as anticancer agents” (BRISTOL-MYERS SQUIBB COMPANY, priority 2015, dated 2017).
